Measured values taken from article PMC10785756, “Hydrolysis of Antimicrobial Peptides by Extracellular Peptidases in Wastewater” (Environmental Science & Technology, 2023).
Read-outs that look alike come from different tables or passages of the source. Values belong to the compound of their own block, whether it stands above or below them. Peptide text beside a SMILES is read from it.

Columns and labels:
[1] = test system: extracellular wastewater peptidases (pool I extracts from WWTP influents); assay: Absolute quantification of transformation products (TPs) formed during AMP incubation with wastewater extracts; assay type: in vitro ADME
Method: We thawed enzyme extracts and transferred 1.35 mL to 2 mL protein LoBind Eppendorf tubes. For autoclaved controls, extract aliquots of 1.5 mL were autoclaved for 20 min at 121 °C and 2 bar (Wolf Sanoclav LaS-MCS-J) and 1.35 mL of the autoclaved extracts were transferred into 2 mL protein LoBind Eppendorf tubes. We then spiked 150 μL of the AMP stock solution containing all AMPs at 10 μg/mL to the enzyme extracts or 1.35 mL of ultrapure water. […] Triplicate incubations were conducted for the autoclaved and active extracts with spiked AMP. After AMP spiking, we mixed the solutions by inverting the vials and incubating them at 20 °C under horizontal shaking at 300 rpm. To stop enzymatic reactions at pre-defined sampling time points (i.e., 2 min, 30 min, 1 h, 2 h, and 4 h), we transferred 150 μL of the incubation solution to 450 μL of acetonitrile containing 1% (v/v) formic acid in 1.5 mL protein LoBind Eppendorf tubes, mixed the resulting solution by inverting the tube and by horizontally shaking it at 300 rpm for 2 min at 20 °C, and centrifuged samples at 16,000g for 1 min. This protocol step was conducted according to Luther et al.[9] We then transferred the supernatant into a fresh 1.5 mL protein LoBind Eppendorf tube and dried it in a SpeedVac vacuum concentrator (30 °C for approximately 6 h). To resolubilize AMPs, we added 150 μL of water containing 5% (v/v) acetonitrile and 0.1% (v/v) formic acid, vortexed the samples, and centrifuged them for 10 s at 1000g at room temperature. We transferred the solution into QuanRecovery HPLC vials (Waters, 186009186) and stored the samples at −20 °C until analysis. For method development, selected (and indicated) samples were sonicated (Sonorex Super RK 106, Bandelin, max 480 W) for 5 min at different steps of the sample preparation process.
We analyzed AMPs using UHPLC (Thermo Scientific Dionex Ultimate 3000) equipped with a Waters XSelect PREMIER CSH C18 column (article number: 186009870) coupled to HRMS (Thermo QExactive). […] We used Skyline (version 20.2.0.343) to analyze the raw data. Criteria for parent peptides and hydrolysis product identification were set as described before:[31]m/z deviation <2 ppm, MS/MS fragments with m/z deviation <5 ppm, and reasonable chromatographic peak shape. For products, the peak area had to either increase throughout the incubation experiment or first increase and then decrease.
To learn about the enzymatic hydrolysis pathways of AMPs that we found to be rapidly biotransformed by enzymes in wastewater extracts, we predicted all products of single peptide bond hydrolysis reactions and screened our data-dependent high-resolution mass spectrometry data for experimental evidence in support of the predicted hydrolysis products. These analyses were conducted for the AMPs with the highest biotransformation extents (i.e., >0.5 in at least two WWTPs), namely, cecropin P1, omiganan, and R8. The following requirements for transformation products (TPs) were defined: at least three amino acids, peak area either increases during the incubation experiment or first increases and then decreases, peak area exceeds that in AMP-free enzyme extract by >5-fold and that in spiked autoclaved extracts by >6-fold, and mass deviation <2 ppm from the calculated exact mass. Mass lists, mass deviations, and retention times of all TPs can be found in Tables S6–S11. We further predicted TPs formed via exocleavage mechanisms (i.e., cleavage of one or two terminal amino acids simultaneously from the C- and N- terminus of the peptide) and screened for these TPs in the HRMS data.
For cecropin P1, we performed absolute quantification for TPs II, III, IV, V, VI, and X and found the highest concentrations for TP III. Up to 8.8% of spiked cecropin P1 is converted to TP III during incubations with wastewater extract. For TP II, the conversion ranges from 3.7–5.7%, and for TP V and VI, conversions range between 1.5 and 4.9 and 2.1 and 2.9%, respectively. […]

[2] = test system: extracellular wastewater peptidases (pool I extracts from WWTP influents); assay: AMP incubation with active dissolved extracellular wastewater extracts (pool I) from WWTP influents; assay type: in vitro ADME
Method: We took samples from four municipal WWTPs in Austria ([…], and D). […] Where existing, we sampled the following five stages along the wastewater treatment process: influent, primary clarification tank, high-load and low-load aeration tanks, and effluent. […] We took 2 × 500 mL grab samples at each stage using a plastic beaker. We transferred the samples into 500 mL glass bottles leaving roughly one-third of the bottle empty, transported them to the lab, and pooled duplicate samples for further processing. Enzyme extraction started within 1 h after sampling. For total suspended solid (TSS) determination, we filtered 20 mL of each sample through a preweighed, dry GF/F Whatman glass microfiber filter (Sigma-Aldrich, WHA1825047) using a vacuum filtration system, dried the filters at 105 °C for 2 h, and determined the TSS contents from the weight difference. […] Otherwise, the extraction process was the same for pools I and II. All extractions were performed in triplicate, and extracts were kept on ice until further use. […] Triplicate incubations were conducted for the autoclaved and active extracts with spiked AMP. […] This protocol step was conducted according to Luther et al.[9] We then transferred the supernatant into a fresh 1.5 mL protein LoBind Eppendorf tube and dried it in a SpeedVac vacuum concentrator (30 °C for approximately 6 h). […] We transferred the solution into QuanRecovery HPLC vials (Waters, 186009186) and stored the samples at -20 °C until analysis. For method development, selected (and indicated) samples were sonicated (Sonorex Super RK 106, Bandelin, max 480 W) for 5 min at different steps of the sample preparation process. We analyzed AMPs using UHPLC (Thermo Scientific Dionex Ultimate 3000) equipped with a Waters XSelect PREMIER CSH C18 column (article number: 186009870) coupled to HRMS (Thermo QExactive). We injected 10 μL of each sample and applied a flow rate of 0.4 mL/min using the following eluent gradient (A: ultrapure water, B: […] Detection parameters were chosen as follows: […] We used Skyline (version 20.2.0.343) to analyze the raw data. […] For products, the peak area had to either increase throughout the incubation experiment or first increase and then decrease.

[3] = test system: dissolved extracellular wastewater enzymes derived from aeration tanks of WWTPs; details: cited from earlier work
Method: Our results on daptomycin are consistent with an earlier study that reported daptomycin concentrations to be stable during its incubation with dissolved extracellular wastewater enzymes derived from aeration tanks of WWTPs.[33] We note that daptomycin concentrations in experiments with autoclaved controls were lower compared to active extracts for ...

[4] = maximum TP concentration corrected for sorption to the wastewater matrix
[5] = maximum TP concentration during incubation of parent AMP with wastewater extracts, synthetic standards, HPLC-HRMS
[6] = pool I influent extracts, WWTPs A-D, absolute quantification with synthetic peptide standards, HPLC-HRMS, triplicate incubations
[7] = pool I influent extracts, WWTPs A-D, active compared with autoclaved extracts, 20 °C, up to 4 h, HPLC-HRMS, triplicate incubations

Compound: CC[C@H](C)[C@H](NC(=O)[C@H](C)N)C(=O)N[C@@H](CCC(N)=O)C(=O)NCC(=O)NCC(=O)N1CCC[C@H]1C(=O)N[C@@H](CCCNC(=N)N)C(=O)O [AIQGGPR (V)] (H-AIQGGPR-OH)
Potential conc. considering sorption [1, 4]: 78.2 µg/L
Maximum conc. detected in exp. [1, 5]: 48.6 µg/L

Compound: CC(C)[C@H](NC(=O)[C@H](CCCCN)NC(=O)CNC(=O)[C@H](Cc1ccccc1)NC(=O)[C@@H](NC(=O)[C@H](C)N)C(C)C)C(=O)O [AVFGKV (V)] (H-AVFGKV-OH)
Potential conc. considering sorption [1, 4]: 30.0 µg/L
Maximum conc. detected in exp. [1, 5]: 27.5 µg/L

Maximum conc. detected in exp. [1]: 22.8 µg/L
Potential conc. considering sorption [1]: 29.3 µg/L
Compound: CC(C)C[C@H](NC(=O)[C@@H](N)Cc1ccccc1)C(=O)NCC(=O)O [FLG (IV)] (H-Phe-Leu-Gly-OH)

Compound: CC(C)C[C@H](NC(=O)[C@@H](N)Cc1ccccc1)C(=O)NCC(=O)N[C@@H](CCCCN)C(=O)N[C@H](C(=O)O)C(C)C [FLGKV (II)] (H-FLGKV-OH)
Potential conc. considering sorption [1, 4]: 19.5 µg/L
Maximum conc. detected in exp. [1, 5]: 16.5 µg/L

Compound: CC(C)C[C@H](NC(=O)[C@@H](N)Cc1ccccc1)C(=O)NCC(=O)N[C@@H](CCCCN)C(=O)N[C@H](C(=O)N[C@@H](Cc1ccccc1)C(=O)O)C(C)C [FLGKVF (I)] (H-FLGKVF-OH)
Potential conc. considering sorption [1, 4]: 101.9 µg/L
Maximum conc. detected in exp. [1, 5]: 78.3 µg/L
conversion of spiked parent AMP to the TP during incubation with wastewater extract [1, 6]: Up to 7.8%

Maximum conc. detected in exp. [1]: 6.9 µg/L
Potential conc. considering sorption [1]: 8.1 µg/L
conversion of spiked parent AMP to the TP during incubation with wastewater extract [1]: less than 1%
Compound: CC[C@H](C)[C@H](N)C(=O)N[C@@H](CC(C)C)C(=O)N[C@@H](CCCNC(=N)N)C(=O)N[C@@H](Cc1c[nH]c2ccccc12)C(=O)N1CCC[C@H]1C(=O)N[C@@H](Cc1c[nH]c2ccccc12)C(=O)N[C@@H](Cc1c[nH]c2ccccc12)C(=O)N1CCC[C@H]1C(=O)O [ILRWPWWP (I)] (H-ILRWPWWP-OH)

Compound: CC[C@H](C)[C@H](N)C(=O)N[C@@H](CCC(N)=O)C(=O)NCC(=O)NCC(=O)N1CCC[C@H]1C(=O)N[C@@H](CCCNC(=N)N)C(=O)O [IQGGPR (III)] (H-IQGGPR-OH)
Potential conc. considering sorption [1, 4]: 124.8 µg/L
Maximum conc. detected in exp. [1, 5]: 87.8 µg/L
conversion of spiked parent AMP to the TP during incubation with wastewater extract [1, 6]: Up to 8.8%

Maximum conc. detected in exp. [1]: 2.7 µg/L
Potential conc. considering sorption [1]: 3.4 µg/L
conversion of spiked parent AMP to the TP during incubation with wastewater extract [1]: less than 1%
Compound: CC(C)C[C@H](NC(=O)[C@H](Cc1c[nH]c2ccccc12)NC(=O)[C@@H](N)CO)C(=O)O [SWL (IV)] (H-Ser-Trp-Leu-OH)

Compound: CC(C)C[C@H](NC(=O)[C@H](Cc1c[nH]c2ccccc12)NC(=O)[C@@H](N)CO)C(=O)N[C@@H](CO)C(=O)O [SWLS (II)] (H-SWLS-OH)
Potential conc. considering sorption [1, 4]: 69.5 µg/L
Maximum conc. detected in exp. [1, 5]: 57.1 µg/L
conversion of spiked parent AMP to the TP during incubation with wastewater extract [1, 6]: 3.7–5.7%

Compound: CC(C)C[C@H](NC(=O)[C@H](Cc1c[nH]c2ccccc12)NC(=O)[C@@H](N)CO)C(=O)N[C@@H](CO)C(=O)N[C@@H](CCCCN)C(=O)N[C@H](C(=O)O)[C@@H](C)O [SWLSKT (X)] (H-SWLSKT-OH)
Potential conc. considering sorption [1, 4]: 3.7 µg/L
Maximum conc. detected in exp. [1, 5]: 2.9 µg/L
conversion of spiked parent AMP to the TP during incubation with wastewater extract [1, 6]: less than 1%

Compound: CC(C)C[C@H](NC(=O)[C@H](Cc1c[nH]c2ccccc12)NC(=O)[C@@H](N)CO)C(=O)N[C@@H](CO)C(=O)N[C@@H](CCCCN)C(=O)N[C@H](C(=O)N[C@@H](C)C(=O)O)[C@@H](C)O [SWLSKTA (VI)] (H-SWLSKTA-OH)
Potential conc. considering sorption [1, 4]: 36.4 µg/L
Maximum conc. detected in exp. [1, 5]: 28.6 µg/L

Compound: CC(C)[C@H](N)C(=O)N[C@@H](Cc1ccccc1)C(=O)NCC(=O)N[C@@H](CCCCN)C(=O)N[C@H](C(=O)O)C(C)C [VFGKV (VII)] (H-VFGKV-OH)
Potential conc. considering sorption [1, 4]: 47.1 µg/L
Maximum conc. detected in exp. [1, 5]: 32.1 µg/L

Compound: bacitracin A
removal by biotransformation in active wastewater extracts (in words) [2, 7]: did not observe substantial removal

removal by biotransformation in active wastewater extracts (in words) [2]: biotransformed
detectable removal during incubation, of the amounts detected at the first time point, in active extracts ([2]; pool I influent extracts, WWTPs A-D, all AMPs spiked together (150 μL of 10 μg/mL into 1.35 mL extract), 20 °C, 300 rpm, sampling 2 min to 4 h, HPLC-HRMS, triplicate incubations, maximum over WWTPs): up to 50%
Compound: colistin A

removal by biotransformation in active wastewater extracts (in words) [2]: biotransformed
Compound: colistin B

Compound: daptomycin
removal by biotransformation in active wastewater extracts (in words) [2, 7]: did not observe substantial removal
daptomycin concentration during incubation with dissolved extracellular wastewater enzymes [3]: stable

removal by biotransformation in active wastewater extracts (in words) [2]: did not observe substantial removal
Compound: murepavadin

biotransformation extent (eq 1, from concentrations in active and autoclaved extracts) [2]: > 0.5
Compound: omiganan
removal by biotransformation in active wastewater extracts (in words) [2]: rapidly removed to nonquantifiable concentrations
